What was measured:
[1] = Encapsulation efficiency of lipid nanoparticles (Quant-it Ribogreen RNA quantification assay); assay type: physicochemical; conditions: LNP encapsulating hEPO mRNA
Experimental: (§1) Briefly, a cationic lipid provided herein, DSPC, cholesterol, and PEG-lipid were solubilized in ethanol at a molar ratio of 50:10:38.5:1.5, and mRNA were diluted in 10 to 50 mM citrate buffer, pH=4. The LNPs were prepared at a total lipid to mRNA weight ratio of approximately 10:1 to 30:1 by mixing the ethanolic lipid solution with the aqueous mRNA solution at a volume ratio of 1:3 using a microfluidic apparatus, total flow rate ranging from 9-30 mL/min. Ethanol were thereby removed and replaced by DPBS using dialysis. Finally, the lipid nanoparticles were filtered through a 0.2 μm sterile filter.
(§2) Lipid nanoparticle size were determined by dynamic light scattering using a Malvern Zetasizer Nano ZS (Malvern UK) using a 173° backscatter detection mode. The encapsulation efficiency of lipid nanoparticles were determined using a Quant-it Ribogreen RNA quantification assay kit (Thermo Fisher Scientific, UK) according to the manufacturer's instructions.

[2] = system: human erythropoietin (hEPO) mRNA; assay: Animal study: hEPO expression after tail vein injection of LNPs encapsulating hEPO mRNA (serum ELISA); assay type: in vivo; conditions: hEPO level, female ICR mice, 0.5 mg/kg, 6 hours post administration; for Expression at 6 h (μg/ml): class symbols, Table 3; for Expression at 6 h: Table 2
Experimental: Lipid nanoparticles comprising compounds 1-10 encapsulating human erythropoietin (hEPO) mRNA were systemically administered to 6-8 week old female ICR mice (Xipuer-Bikai, Shanghai) at 0.5 mg/kg dose by tail vein injection and mice blood were sampled at specific time points (e.g., 6 hours) post administration. In addition to the aforementioned tested groups, lipid nanoparticles comprising dilinoleylmethyl-4-dimethylaminobutyrate (DLin-MC3-DMA, usually abbreviated to MC3) encapsulating hEPO mRNA were similarly administered at the same dose to age and gender comparative groups of mice as a positive control.
Mice were euthanized by CO2 overdoses after the last sampling time point. Serum were separated from total blood by centrifugation at 5000 g for 10 minutes at 4° C., snap-frozen and stored at −80° C. for analysis. ELSA assay were carried out using a commercial kit (DEP00, R&D systems) according to manufacturer's instructions.
Characteristics of tested lipid nanoparticles, including hEPO expression levels (μg/ml) measured from the tested group are listed the tables below and plotted in FIG. 2.

[3] = Apparent pKa of LNP formulations (TNS fluorescence assay); conditions: LNP cationic lipid/DSPC/cholesterol/DMG-PEG 50/10/38.5/1.5 mol %
[4] = Lipid nanoparticle size by dynamic light scattering (Malvern Zetasizer Nano ZS); assay type: physicochemical; conditions: LNP: cationic lipid/DSPC/cholesterol/PEG-lipid 50:10:38.5:1.5, hEPO mRNA
Experimental: as §1, §2

SMILES	Encapsulation Efficiency ([1]; Table 3)	Expression at 6 h (μg/ml) [2]	Apparant Pka ([3]; Table 3)	polydispersity ([4]; Table 3)	size nm ([4]; Table 3)	Encapsulation Efficiency ([1]; Table 2)	Expression at 6 h [2]	Apparant Pka ([3]; Table 2)	polydispersity ([4]; Table 2)	size nm ([4]; Table 2)
CCCCCCCCC(CCCCCCCC)COC(=O)CCCCCN(CCCCCC(=O)OCC(CCCCCCCC)CCCCCCCC)CCN(CCO)C1CCCOC1 (stereo not shown) [Compound 65]	93.0%	A (≥2)	6.544	0.066	63.83 nm	–	–	–	–	–
CCCCCCCCC(CCCCCC)COC(=O)CCCCCN(CCCCCC(=O)OCC(CCCCCC)CCCCCCCC)CCN(CCO)C1CCSCC1 (stereo not shown) [Compound 91]	92.1%	B (≥1 and <2)	6.257	0.106	62.06 nm	–	–	–	–	–
CCCCC/C=C\CCCOC(=O)CCCCCN(CCCCCC(=O)OCCC/C=C\CCCCC)CCN(CCO)C1CCC1 [Compound 62]	36.2%	D (<0.1)	6.438	0.156	244.8 nm	–	–	–	–	–
CCCCCCCCC(CCCCCC)COC(=O)CCCCCN(CCCCCC(=O)OCC(CCCCCC)CCCCCCCC)CCN(CC(O)CCCC)C1CCC1 (stereo not shown) [Compound 33]	94.5%	D (<0.1)	5.315	0.091	62.2 nm	–	–	–	–	–
CCCCCCCCC(CCCCCC)COC(=O)CCCCCN(CCCCCC(=O)OCC(CCCCCC)CCCCCCCC)CCN(CCC)C1CCC(O)CC1 (stereo not shown) [Compound 56]	96.4%	A (≥2)	6.466	0.07	85.46 nm	–	–	–	–	–
CCCCCCCCC(CCCCCC)COC(=O)CCCCCN(CCCCCC(=O)OCC(CCCCCC)CCCCCCCC)CCN(CCO)CCCCCC (stereo not shown) [Compound D]	–	–	–	–	–	95.5%	1.02 µg/mL	6.28	0.118	59.2 nm
CCCCCCCCC(CCCCCC)CC(=O)COCCCCN(CCCCCOC(=O)CC(CCCCCC)CCCCCCCC)CCN(CCO)C1CCCCCC1 (stereo not shown) [Compound 27]	96.7%	C (≥0.1 and <1)	6.153	0.133	58.44 nm	–	–	–	–	–
CCCCCCCCC(CCCCCC)COC(=O)CCCCCN(CCCCCC(=O)OCC(CCCCCC)CCCCCCCC)CCN(CCO)C1CCOCC1 (stereo not shown) [Compound 89]	94.6%	A (≥2)	6.7	0.028	84.53 nm	–	–	–	–	–
CCCCCCCCC(CCCCCC)CC(=O)COCCCCN(CCCCCOC(=O)CC(CCCCCC)CCCCCCCC)CCN(CCO)C1CCCCC1 (stereo not shown) [Compound 26]	96.7%	C (≥0.1 and <1)	–	0.125	55.51 nm	–	–	–	–	–
CCCCCCCCC(CCCCCC)CNC(=O)CCCCCN(CCCCCC(=O)OCC(CCCCCC)CCCCCCCC)CCN(CCO)C1CCCCC1 (stereo not shown) [Compound 127]	98.70%	A (≥2)	–	0.111	77.12 nm	–	–	–	–	–
CCCCCCCCC(CCCCCC)COC(=O)CCCCCN(CCCCCC(=O)OCC(CCCCCC)CCCCCCCC)CCN1CCC(O)CC1 (stereo not shown) [Compound 96]	96.9%	D (<0.1)	–	0.101	85.98 nm	–	–	–	–	–
CCCCCCCCC(CCCCCC)CNC(=O)CCCCCN(CCCCCC(=O)OCC(CCCCCC)CCCCCCCC)CCN(CCO)C1CCCCCC1 (stereo not shown) [Compound 128]	86.10%	A (≥2)	–	0.107	79.73 nm	–	–	–	–	–
CCCCCCCCC(CCCCCC)COC(=O)CCCCCN(CCCCCC(=O)OCC(CCCCCC)CCCCCCCC)CCN1CC(O)C1 (stereo not shown) [Compound 97]	96.8%	D (<0.1)	–	0.204	66.69 nm	–	–	–	–	–
CCCCCCCCC(CCCCCCCC)COC(=O)CCCCCN(CCCCCC(=O)OCC(CCCCCCCC)CCCCCCCC)CCN(C)C1CCC(O)CC1 (stereo not shown) [Compound 73]	93.1%	C (≥0.1 and <1)	–	0.027	78.99 nm	–	–	–	–	–
CCCCCCCCC(CCCCCC)COC(=O)CCCCCN(CCCCCC(=O)OCC(CCCCCC)CCCCCCCC)C1CCN(CCO)CC1 (stereo not shown) [Compound 98]	97.6%	D (<0.1)	–	0.105	86.23 nm	–	–	–	–	–
CCCCCCCCC(CCCCCC)COC(=O)CCCCCN(CCCCCC(=O)OCC(CCCCCC)CCCCCCCC)CCN(CCCCC)C1CCC(O)CC1 (stereo not shown) [Compound 61]	83.4%	A (≥2)	–	0.087	65.04 nm	–	–	–	–	–
CCCCCCCCC(CCCCCC)CC(=O)NCCCCCN(CCCCCOC(=O)CC(CCCCCC)CCCCCCCC)CCN(CCO)C1CCCC1 (stereo not shown) [Compound 130]	92.50%	A (≥2)	–	0.097	79.92 nm	–	–	–	–	–
CCCCC/C=C\C/C=C\CCCCCCCCC(CCCCCCCC/C=C\C/C=C\CCCCC)OC(=O)CCCN(C)C [MC3, dilinoleylmethyl-4-dimethylaminobutyrate, reference compound]	–	–	–	–	–	98.5%	2.35 µg/mL	–	0.042	79.8 nm
CCCCCCCCCCCCC(CCCCCC)COC(=O)CCCN(CCCC(=O)OCC(CCCCCC)CCCCCCCCCCCC)CCN(CCO)C1CCC1 (stereo not shown) [Compound 47]	95.3%	C (≥0.1 and <1)	–	0.103	62.38 nm	–	–	–	–	–
CCCCCCCCC(CCCCCC)CNC(=O)CCCCCN(CCCCCC(=O)NCC(CCCCCC)CCCCCCCC)CCN(CCO)C1CCCCC1 (stereo not shown) [Compound 129]	91.20%	A (≥2)	–	0.131	63.13 nm	–	–	–	–	–
CCCCCCCCCCC(CCCCCCCCCC)COC(=O)CCCCCN(CCCCCC(=O)OCC(CCCCCCCCCC)CCCCCCCCCC)CCN(CCO)C1CCC1 [Compound 52]	95.70%	A (≥2)	–	0.054	69.18 nm	–	–	–	–	–
CCCCCCCCC(CCCCCC)COC(=O)CCCCCN(CCCCCC(=O)OCC(CCCCCC)CCCCCCCC)CCN(CCO)C1CCN(C)CC1 (stereo not shown) [Compound 94]	100.3%	D (<0.1)	–	0.298	67.01 nm	–	–	–	–	–
CCCCCCCCC(CCCCCC)CNC(=O)CCCCCN(CCCCCC(=O)NCC(CCCCCC)CCCCCCCC)CCN(CCO)C1CC1 (stereo not shown) [Compound 119]	93.2%	D (<0.1)	–	0.06	67.17 nm	–	–	–	–	–

Reference: patent US11472766B2, “Lipid nanoparticle composition” (Suzhou Abogen Biosciences Co., Ltd., priority 2020, dated 2022)
